Tested on: Male Wistar rats
Assay: Ischemia reperfusion: infarct size after LAD occlusion (25 min) and reperfusion (2 h) in anesthetised rats
Type: in vivo, rat
Conditions: 32 mg/kg i.v. bolus 5 min prior to ischemia; 25 min LAD occlusion, 2 h reperfusion; vs vehicle 56±3% of the AAR; P=0.047, unpaired Students t-test; FIG. 2
Procedure: Male Wistar rats (200-300 g, Tuck, Rayleigh, Essex, U.K.) were anesthetised with thiopentone sodium (Intraval®, 120 mg/kg i.p.; Rhone-Merrieux, Essex, U.K.). The rats were tracheotomised, intubated and ventilated with a Harvard ventilator (70 strokes/min, tidal volume: 8-10 mL/kg, inspiratory oxygen concentration: 30%). Body temperature was maintained at 38±1° C. The right carotid artery was cannulated and connected to a pressure transducer (MLT 1050, AD Instruments Ltd, Hastings, UK) to monitor mean arterial blood pressure (MAP) and heart rate (HR), which were continuously recorded on a data acquisition system such as Powerlab® Version 4.0.4, AD Instruments, Hastings, UK. The right jugular vein was cannulated for drug administration and the administration of Evans Blue dye (at the end of the experiment). A lateral thoracotomy was performed and the heart was suspended in a temporary pericardial cradle. A snare occluder was placed around the left anterior descending coronary artery (LAD). After completion of the surgical procedure the animals were allowed to stabilise for 30 min before LAD ligation. Five minutes prior to the onset of myocardial ischemia, a bolus injection (i.v.) of either vehicle or phosphonate was administered. The coronary artery was occluded at time 0 by tightening of the occluder. […]

In the case of `Cc1nc(-c2ccccc2)c(C(F)P(=O)(O)O)c(CO)c1O` (stereo not shown) [Compound 38, [Fluoro-(5-hydroxy-4-hydroxymethyl-6-methyl-2-phenyl-pyridin-3-yl)-methyl]-phosphonic acid], the “myocardial infarct size (as a percentage of the weight of the AAR)” value is reported as “reduced myocardial infarct size”.

Source: patent US20060241083A1, “Novel heteroaryl phosphonates as cardioprotective agents” (Medicure International Inc., priority 2003, published 2006)
